Counter-ions that a name gives are not always drawn.
Assays:
[1] = Weight loss on drying measured by TGA; type: physicochemical; details: for Weight loss, as measured by TGA: general statement in description, hydrobromide
Description: TGA analysis was preformed using Mettler 3M with Mettler TG 50 thermobalance. The weight of the samples was about 10 mg; the samples were scanned at a rate of 10° C./min from 25° C. to 200 or 250° C. The oven was constantly purged with nitrogen gas at a flow rate of 40 ml/min. Standard alumina crucibles covered by lids with 1 hole were used.

[2] = Water content by Karl Fisher (KF) analysis; type: physicochemical; details: for Water content, as measured by KF: general statement in description, hydrobromide
From the text: As used herein, the term “water content” refers to the content of water based upon the Loss on Drying method (the “LOD” method) as described in UPS 29-NF 24, official Aug. 1, 2006, Physical Test and Determinations, <731> LOSS ON DRYING or in Pharmacopeial Forum, Vol. 24, No. 1, p. 5438 (January-February 1998), the Karl Fisher assay for determining water content or thermogravimetric analysis (TGA). All percentages herein are by weight unless otherwise indicated. As used herein, the term “monohydrate” when used in reference to Rosiglitazone hydrobromide describes Rosiglitazone hydrobromide having water content of between about 3.9-4.1% w/w. As used herein, the term “hemi-hydrate” when used in reference to Rosiglitazone hydrobromide describes Rosiglitazone hydrobromide having a water content of about 1.8-2.1% w/w. As used herein, the term “quarter-hydrate” when used in reference to Rosiglitazone hydrobromide describes Rosiglitazone hydrobromide having a water content of about 0.7-1.0% w/w.
Water content was determined by Karl Fisher analysis using Mettler Toledo DL 38 Karl Fisher Titrator.

[3] = Polymorphic stability of Form I in compacted tablet with excipients; type: physicochemical; details: compacted with lactose monohydrate, sucrose and avicel
From the text: Solid pharmaceutical compositions of Form I and the following excipients were compacted into a dosage form like a tablet: lactose monohydrate, sucrose and avicel. The polymorphic stability of Rosiglitazone form I in such tablet was examined and determined to be stable.

[4] = Crystalline stability of Form I under pressure, grinding and heating (XRD of resulting material)
[5] = relative humidity 100%
[6] = listed as Rosiglitazone hydrobromide Form II
[7] = 0 % RH, room temperature, 7 days
[8] = 100 % RH, room temperature, 7 days
[9] = listed as Rosiglitazone hydrobromide Form I

Weight loss, as measured by TGA [1, 6]	Water content, as measured by KF [2, 6]	TGA (weight loss on drying) [1, 7]	TGA (weight loss on drying) [1, 8]	TGA (weight loss on drying) ([1]; As is)	Weight loss, as measured by TGA [1, 9]	KF (water content) [2, 7]	KF (water content) [2, 8]	KF (water content) ([2]; As is)	Water content, as measured by KF [2, 9]	Water content ([2]; relative humidity of about 0%, corresponds to a quarter-hydrate)	Water content ([2]; relative humidity of about 50%, corresponds to a hemihydrate)	Hydrate obtained on maintaining at relative humidity ([2]; relative humidity of about 100%)	Polymorphic stability in tablet [3]	Stability under extreme heating conditions ([4]; 80° C. for 30 minutes)	Stability under high pressure and grinding conditions ([4]; high pressure and grinding)	Stability under extreme relative humidity conditions [5]	SMILES
about 3.9 % by weight	about 4.1 % by weight	–	–	–	–	–	–	–	–	–	–	–	–	–	–	–	CN(CCOc1ccc(CC2SC(=O)NC2=O)cc1)c1ccccn1 (centres unmarked) [Form II, Rosiglitazone hydrobromide]
–	–	0.7	3.9	4.1	0.7-4.1 % by weight	1%	4.1%	4.1%	1.0-4.1 % by weight	about 1%	about 2%	a monohydrate is obtained	stable	stable	stable	stable	CN(CCOc1ccc(CC2SC(=O)NC2=O)cc1)c1ccccn1 (centres unmarked) [Form I, Rosiglitazone hydrobromide]
